# Publication PMC11310598, “Gestodene, a novel positive allosteric modulator of PAR1, enhances PAR1-mediated human platelet aggregation” (Frontiers in Pharmacology, 2024)
# Target: T1, Protease-activated receptor 1 (PAR1) (Homo sapiens, UniProt P25116)
# T1 construct: gene F2R; endogenous PAR1 in HT29 cells
# T1 sequence (P25116 42-425): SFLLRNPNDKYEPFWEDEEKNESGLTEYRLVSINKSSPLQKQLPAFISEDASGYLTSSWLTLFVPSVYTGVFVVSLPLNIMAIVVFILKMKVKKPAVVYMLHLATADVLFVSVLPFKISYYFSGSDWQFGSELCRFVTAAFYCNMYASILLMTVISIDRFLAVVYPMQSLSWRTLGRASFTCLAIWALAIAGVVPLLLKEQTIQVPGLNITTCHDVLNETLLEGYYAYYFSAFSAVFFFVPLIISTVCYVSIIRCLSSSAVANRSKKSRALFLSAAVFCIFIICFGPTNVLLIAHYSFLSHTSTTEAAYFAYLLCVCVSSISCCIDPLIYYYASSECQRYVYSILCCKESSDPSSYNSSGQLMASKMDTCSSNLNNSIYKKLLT
# Assay: Fluo-4 intracellular calcium, potentiation of thrombin or PAR1-AP response; blocked by vorapaxar
# Assay type: cell-based
smiles,measurement,value
C#C[C@]1(O)C=C[C@H]2[C@@H]3CCC4=CC(=O)CC[C@@H]4[C@H]3CC[C@@]21CC [gestodene],EC50,4.54 ± 0.27 µM
